Measured values: the METLIN SMRT retention time set (Domingo-Almenara et al. 2019)

Assay: gradient 5% acetonitrile 3 min, to 50% in 2 min, to 85% in 15 min, held 3 min, 100 µL/min
Settings: column: Zorbax Extend-C18 2.1 x 50 mm; eluents: water / acetonitrile, 0.1% formic acid
How it was run: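 Retention times of pure standards were taken from adduct peaks that were selected by computer and manually inspected. Over 3 months, mixtures of ~100 molecules were run by HPLC–quadrupole time-of-flight mass spectrometry in positive and negative ionization mode. The Zorbax Extend-C18 column (2.1 × 50 mm, 1.8 μm) ran at 100 μL/min in water and acetonitrile, each containing 0.1% formic acid, with 40 μL dead volume and 900 μL dwell volume.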

| RP-LC retention time [s] | SMILES |
| --- | --- |
| 668 | CCCCNS(=O)(=O)c1cc(-c2[nH]ncc2C(=O)N2CCCC2)oc1C |
| 685 | CCC(NC(=O)c1cn2ccc(C)cc2n1)c1cccs1 (configuration not stated) |
| 812 | Cc1nc(C2CN(S(=O)(=O)c3ccccc3F)CC23CCOCC3)no1 (configuration not stated) |
| 685 | COCCn1nnnc1C1CC2(CCOCC2)C(=O)N1CCc1ccc(OC)c(OC)c1 (configuration not stated) |
| 783 | Cc1ccc(CNC(=O)C2(C)CN(S(=O)(=O)c3ccccc3)CC(=O)N2C2CC2)cc1 (configuration not stated) |
| 724 | Cc1noc(CNC(=O)COc2cccc3c2OC(C)(C)C3)n1 |
| 949 | CCc1nc(-n2cccc2)sc1C(=O)Nc1ccc(C)cc1 |
| 919 | Cc1ccc(C(C)NC(=O)c2ccc3[nH]cc(C(=O)C(=O)N4CCCCCC4)c3c2)c(C)c1 (configuration not stated) |
| 871 | O=c1c2ccccc2ncn1Cc1noc(Cc2ccc(Br)cc2)n1 |
| 1050 | Cn1c(=O)n(CC(=O)N2CCCCC2)c(=O)c2cnc(-c3ccc(Cl)cc3)nc21 |
| 807 | COc1cc(Cl)ccc1C(=O)NC1CCN(c2cc(-c3ccc(F)cc3)[nH]n2)C1 (configuration not stated) |
| 1110 | Cc1cc(C)cc(NC(=O)Cn2nc(N3CCCCCC3)c3ccccc3c2=O)c1 |
| 852 | Cc1ccc(NC(=O)CSc2nc(N3CCCCC3)nc3ccccc23)cc1Cl |
| 1060 | O=C(CN1C(=O)C(C(=O)N2CCCC2)Sc2ccccc21)NC1CCCCCCC1 (configuration not stated) |
| 848 | COc1ccccc1-c1noc(C2CCCN2C(=O)Nc2ccccc2)n1 (configuration not stated) |
| 827 | Cc1nn(CC(=O)NC(C)c2ccc3c(c2)OCCO3)c(=O)c2c(C)n(-c3ccccc3)nc12 (configuration not stated) |
| 1030 | Cc1cccc(-c2noc(Cn3c(=O)n(-c4ccccc4F)c(=O)c4sccc43)n2)c1 |
| 563 | O=C(NCCCN1CCOCC1)c1ccc(-c2ccc(N3CCCCC3)nn2)cc1 |
| 518 | CN(C)[C@@H]1CN(Cc2cccc(C#N)c2)C[C@H]1CO |
| 749 | O=C(Nc1ccccc1Cl)N1CCC(N2CCN(Cc3cccc(F)c3)C(=O)C2=O)CC1 |
| 754 | Cc1ccc(N2CCN(C(=O)C3CCCN(c4cnc5nccnc5c4)C3)CC2)cc1 (configuration not stated) |
| 938 | Cc1ccc(NC(=O)Cn2nc(N3CCCC3)c3ccccc3c2=O)cc1 |

| RP-LC retention time [s] | SMILES |
| --- | --- |
| 522 | NCc1nnnn1-c1ccc(Cl)cc1 |
| 672 | Cc1c(NC(=O)C2CCN(S(=O)(=O)Cc3ccccc3)CC2)c(=O)n(-c2ccccc2)n1C |
| 696 | COc1ccc(-c2cc(N3CCC(NC(=O)c4ccc(F)cc4F)C3)n[nH]2)cc1 (configuration not stated) |
| 589 | Cn1c(N2CCCC(C(=O)NCC3CCN(CCc4cccs4)CC3)C2)cc(=O)n(C)c1=O (configuration not stated) |
| 1180 | Cc1sc(C)c(S(=O)(=O)NCCc2ccccc2)c1-c1cc(C(F)(F)F)on1 |
| 522 | O=c1[nH]c2ccc(S(=O)(=O)N3CCN(c4nc5ccccc5[nH]4)CC3)cc2o1 |
| 1280 | CC(C)(C)c1csc(-c2csc(S(=O)(=O)NCc3ccc(F)c(Cl)c3)c2)n1 |
| 616 | COc1cc2c(cc1OC)C(C(=O)NCc1ccccn1)C1c3ccccc3CCN1C2=O (configuration not stated) |
| 1350 | O=S(=O)(c1cccc(-c2nc(-c3ccccc3)no2)c1)N1CCCc2ccccc21 |
| 570 | CN1CCN(CC2(O)CCC3(CCN(C(=O)c4ccsc4)CC3)CC2)CC1 |
| 1040 | CCOc1ccc(-c2noc(Cn3ncn4nc(-c5ccc(OC)cc5)cc4c3=O)n2)cc1OC |
| 620 | O=C(CN1CCCC(COCc2ccccc2)C1)N1CCN(c2ccccc2)CC1 (configuration not stated) |
| 804 | CCc1nn2c(CNC(=O)C3CCC3)c(-c3ccccc3)nc2s1 |
| 585 | O=C(Cn1c(CO)cnc1SCc1ccc(Cl)c(Cl)c1)NC1CC1 |
| 752 | CCOC(=O)c1ccc(NC(=O)CCc2c(-c3ccc(Cl)cc3)nc3ccccn23)cc1 |
| 682 | CCn1ccc2oc(C)c(C(=O)N3CCN(c4ccc(OC)cc4)CC3)c2c1=O |
| 592 | CC(C)Cn1c(=O)c(N2CCN(C(=O)Cc3cccs3)CC2)nc2ccncc21 |
| 983 | O=C(NC1CCCCCC1)C1CCCN(C(=O)Cc2cccc3ccccc23)C1 (configuration not stated) |
| 630 | CCOC(=O)C1CCN(C(=O)C2CCc3nc(N(CC)CC)ncc3C2)CC1 (configuration not stated) |
| 1060 | CCOc1ccc(C(=O)N2CCc3cc(-c4csc(C)n4)ccc32)cc1 |
| 714 | Cc1cc(C(=O)N2CCN(c3ccccc3F)CC2)n[nH]1 |
| 1140 | Cc1ccc(Nc2c(-c3cccc(Br)c3)nc3ccc(Br)cn23)cc1 |

The next lines start with the compound.

| SMILES | RP-LC retention time [s] |
| --- | --- |
| CC(NC(=O)c1ccc(Oc2nccnc2N2CCSCC2)cc1)c1ccc(F)cc1 (configuration not stated) | 965 |
| O=C1CC(c2nc(-c3ccccc3F)no2)CN1c1ccc2c(c1)OCO2 (configuration not stated) | 865 |
| CCN1CCCn2nc(C3CCN(C(=O)COc4cccc(Cl)c4)CC3)cc2C1=O | 751 |
| CCN(CC)C(=O)c1ccc2c(c1)N(CC(=O)Nc1ccc3c(c1)OCO3)C(=O)C1CCCCN21 (configuration not stated) | 808 |
| CC(=O)Nc1ccc(C(=O)NC(C(=O)N2CCCc3ccccc32)c2ccccc2)cc1 (configuration not stated) | 850 |
| CCC(=O)N1CCc2cc(S(=O)(=O)CCC(=O)NC3CCCc4ccccc43)ccc21 (configuration not stated) | 860 |
| CCS(=O)(=O)c1ccc2c(c1)N(Cc1nc(-c3ccc(C)c(C)c3)no1)C(=O)CO2 | 1000 |
| COc1ccc(CN2N=C(C(=O)N3CCCC3)S(=O)(=O)c3ccccc32)cc1 | 823 |
| Cc1cc2nn(CC(=O)Nc3ccccc3F)c(=O)n2c(Nc2ccccc2)n1 | 985 |
| Fc1ccc(F)c(-c2nc(-c3ccc4c(c3)ncn4CCN3CCCC3)no2)c1 | 624 |
| Cc1ccc(NC(=O)N2CCc3c(c(-c4nnc(-c5ccc(F)cc5)o4)nn3C)C2)cc1Cl | 1010 |
| O=c1ccc(-c2nc(-c3ccc(F)cc3)no2)nn1Cc1cc(F)cc(F)c1 | 1110 |
| COc1ccc(-c2noc(-c3cccnc3N3CCN(c4ccc(OC)cc4)CC3)n2)cc1 | 1070 |
| CCCNc1cc(N2CCC(CCC(=O)NCC)CC2)ncn1 | 595 |
| CCSc1nccc2c1ccn2CC(=O)NCc1ccc(Br)cc1 | 681 |
| O=C(NCc1nc2ccccc2[nH]1)c1ccc(OCC(=O)C2CC2)cc1 | 561 |
| COCC(=O)N(CC(=O)N1CCc2sccc2C1COc1ccccc1OC)C(C)C (configuration not stated) | 795 |
| CCCCCCNC(=O)C1CCCN(c2ncc(-c3ccccc3)cn2)C1 (configuration not stated) | 1150 |
| COc1ccc(NC(=O)NCC2CCOCC2)c(C)c1 | 657 |
| CCOc1ccccc1CNC(=O)C1CCN(Cc2cn(C)c3ccc(Cl)cc23)CC1 | 751 |
| Cc1ccc(NS(=O)(=O)c2ccc(-c3c(C)noc3C)cc2)c(C)c1 | 985 |
| O=C(NC1CCCC1)C1CCCN(C(=O)c2cc(-c3ccccn3)n[nH]2)C1 (configuration not stated) | 616 |

| SMILES | RP-LC retention time [s] |
| --- | --- |
| CCCC(=O)Nc1ccc(C(=O)Nc2nc(-c3ccccc3)cs2)cc1 | 912 |
| COCCN1C(=O)c2cc3ccsc3n2CC1(C)C(=O)NCc1ccc(Cl)cc1 (configuration not stated) | 837 |
| O=C(Cn1cccc1-c1nc(-c2ccc(Cl)cc2)cs1)NCCCN1CCOCC1 | 612 |
| Cc1oc(-c2[nH]ncc2C(=O)N2CCCC2)cc1S(=O)(=O)Nc1ccc(Cl)cc1 | 739 |
| CC(C)n1cnc(S(=O)(=O)N2CCC(C(=O)NCCC3=CCCCC3)CC2)c1 | 804 |
| Cc1ccc(CNC(=O)Cn2ccc3ccc(-c4nnc(C)o4)cc32)o1 | 729 |
| Cc1cnc(-c2ccccc2)n1CCNS(=O)(=O)N(C)C | 572 |
| COc1ccc2c(c1)C1(CCN(S(=O)(=O)c3c(C)noc3C)C1)C(=O)N2C (configuration not stated) | 877 |
| NC(=O)C1CCN(c2oc(-c3ccccc3Cl)nc2S(=O)(=O)c2ccccc2)CC1 | 765 |
| COc1ccc(-c2cc3n(n2)CCCN(C(=O)Nc2ccccc2F)C3)cc1OC | 885 |
| Cc1noc(C)c1CCC(=O)N(C)C1CCc2nn(CC3CC3)c(=O)n2CC1 (configuration not stated) | 644 |
| CC1=C(c2ccc(F)cc2)S(=O)(=O)N=C1N1CCCN(C(=O)C2CCCCC2)CC1 | 883 |
| C[C@H]1CN(C(=O)Nc2ccc(Cl)cc2)C[C@@H]1c1nc(-c2ccccc2)no1 | 1080 |
| O=C(NCCn1nnc2cc(C(=O)N3CCCC3)ccc21)Nc1ccccc1Br | 683 |
| CC(=O)N1CCc2cc(N3CC(C(=O)NCC4CCCO4)CC3=O)ccc21 (configuration not stated) | 590 |
| CC(C)Cn1c(=O)c2cc(C(=O)NCCC3CCN(C(C)C)CC3)nn2c2ccccc21 | 694 |
| COc1cc(OC)c(NC(=O)NC2CCN(c3ccc(C)cc3)C2=O)cc1Cl (configuration not stated) | 873 |
| COc1cc(OC)c(OC)cc1CN1CC[C@]2(CO)CN(Cc3ccccc3)C[C@@H]2C1 | 597 |
| CCn1c(=O)sc2cc(S(=O)(=O)N3CCC(C(=O)Nc4ccc(F)c(Cl)c4)CC3)ccc21 | 1010 |
| CCc1ccc(NC(=O)Cn2c(-c3cnccn3)nc(C)c(C)c2=O)cc1 | 792 |
| COc1ccc(-c2cc(C(=O)N3CCN(S(=O)(=O)c4ccc(F)c(C)c4)CC3)[nH]n2)cc1 | 910 |
